Values belong to the compound of their own block, whether it stands above or below them. Activity calls are given as the source filed them. The rule behind the calls is not given here. Peptide text beside a SMILES is read from it.
Experiments:
HepG2 [1] = assay: Antiproliferative activity against human HepG2 cells under dark condition by CCK8 assay; assay type: functional, cell-based
HepG2 [2] = assay: Antiproliferative activity against human HepG2 cells under 10 J/cm2 light irradiation at 660 nm by CCK8 assay; assay type: functional, cell-based; conditions: HepG2, light or radiation study
Huh-7 [3] = assay: Antiproliferative activity against human Huh-7 cells under dark condition by CCK8 assay; assay type: functional, cell-based
Huh-7 [4] = assay: Antiproliferative activity against human Huh-7 cells under 10 J/cm2 light irradiation at 660 nm by CCK8 assay; assay type: functional, cell-based; conditions: Huh-7, light or radiation study
MCF7 [5] = assay: Antiproliferative activity against human MCF7 cells under dark condition by CCK8 assay; assay type: functional, cell-based
MCF7 [6] = assay: Antiproliferative activity against human MCF7 cells under 10 J/cm2 light irradiation at 660 nm by CCK8 assay; assay type: functional, cell-based; conditions: MCF7, light or radiation study
HeLa [7] = assay: Antiproliferative activity against human HeLa cells under dark condition by CCK8 assay; assay type: functional, cell-based
HeLa [8] = assay: Antiproliferative activity against human HeLa cells under 10 J/cm2 light irradiation at 660 nm by CCK8 assay; assay type: functional, cell-based; conditions: light or radiation study
[9] = Antiproliferative activity against human HUVEC cells under dark condition by CCK8 assay; assay type: toxicity, cell-based
[10] = Antiproliferative activity against human HUVEC cells under 10 J/cm2 light irradiation at 660 nm by CCK8 assay; assay type: toxicity, cell-based
[11] = Partition coefficient, logP of compound; assay type: physicochemical; conditions: octanol/water
[12] = Photostability of compound under 250 mW/cm2 light irradiation at 660 nm incubated for 10 mins by UV spectrophotometry; assay type: physicochemical; conditions: 0.66 µM
[13] = Aggregation property of compound in PBS; assay type: physicochemical; conditions: buffer
chymotrypsin = chymotrypsin (Homo sapiens, UniProt P17538+P40313+Q6GPI1+Q99895); assay: Stability of compound assessed as chymotrypsin (unknown origin)-mediated compound degradation in PBS at pH 7.4 by measuring half life; assay type: ADME, protein assay
Glypican-3 = Glypican-3 (Homo sapiens, UniProt P51654); assay: Binding affinity to GPC3 (unknown origin) assessed as dissociation constant by fluorescence polarization assay
Chain of Glypican-3 (P51654 25-358 limits assumed): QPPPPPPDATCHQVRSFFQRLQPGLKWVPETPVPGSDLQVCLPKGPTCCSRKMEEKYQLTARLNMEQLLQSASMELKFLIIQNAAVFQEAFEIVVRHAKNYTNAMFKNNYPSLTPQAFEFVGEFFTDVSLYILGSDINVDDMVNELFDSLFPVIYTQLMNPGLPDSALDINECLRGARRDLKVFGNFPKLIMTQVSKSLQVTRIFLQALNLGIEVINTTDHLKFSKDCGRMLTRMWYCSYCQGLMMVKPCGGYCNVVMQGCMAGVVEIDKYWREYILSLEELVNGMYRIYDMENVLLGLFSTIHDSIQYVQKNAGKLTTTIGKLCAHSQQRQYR
Chain of Glypican-3 (P51654 359-554 limits assumed): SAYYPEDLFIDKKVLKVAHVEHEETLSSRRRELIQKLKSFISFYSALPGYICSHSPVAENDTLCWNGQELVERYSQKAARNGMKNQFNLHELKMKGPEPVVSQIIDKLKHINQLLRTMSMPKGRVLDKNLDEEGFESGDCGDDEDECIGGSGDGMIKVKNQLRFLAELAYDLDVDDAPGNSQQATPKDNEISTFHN

[14] = […] assessed as decrease in fluorescence intensity of DMA; assay type: functional
[15] = Drug uptake in human MCF7 cells incubated for 2 hrs by fluorescence based assay; assay type: ADME, cell-based; conditions: mcf7, 2 h
[16] = Drug uptake in human HUVEC cells at 500 nM incubated for 0.5 hrs by flow cytometry; assay type: ADME, cell-based; conditions: 0.5 µM
HepG2 [17] = assay: Induction of ROS generation in human HepG2 cells at 10 uM incubated for 24 hrs by DCFH-DA probe based flow cytometry; assay type: functional, cell-based
HepG2 [18] = assay: Induction of ROS generation in human HepG2 cells at 10 uM preincubated for 24 hrs followed by DCFH-DA probe addition and further incubated under dark condition for 20 mins prior and 20 mins post- light irradiation of 10 J/cm2 at 660 nm by flow cytometry; assay type: functional, cell-based; conditions: time 24.66 hrs
[19] = Drug distribution in tumor of BALB/C nude mouse model xenografted with human HepG2 cells at 1 to 2 uM/kg, iv measured for 1 to 4 hrs by fluorescence imaging analysis; assay type: ADME, organism-based, Neoplasm; conditions: in vivo, dose lower 1 µM/Kg, time lower 1 hrs, dose upper 2 µM/Kg, time upper 4 hrs
[20] = Drug distribution in BALB/C nude mouse model xenografted with human HepG2 cells at 1 to 2 uM/kg, iv measured after 1 hr by fluorescence imaging analysis; assay type: ADME, organism-based; conditions: in vivo, dose 1-2 µM/Kg
[21] = Drug distribution in tumor of BALB/C nude mouse model xenografted with human HepG2 cells at 1 to 2 uM/kg, iv measured after 2 hrs by fluorescence imaging analysis; assay type: ADME, organism-based, Neoplasm; conditions: in vivo, dose 1-2 µM/Kg
HepG2 [22] = assay: Antitumor activity in human HepG2 cells xenografted in BALB/C nude mouse model assessed as tumor growth inhibition at 1 uM/kg, iv administered every two days for 21 days along with 250 mW/cm2 light irradiation at 660 nm for 10 mins at 1 hr post-compound administration relative to control; assay type: functional; conditions: time 505.166 hrs, 505.17 h, at 1 µmol/kg
[23] = Toxicity in BALB/C nude mouse model xenografted with human HepG2 cells assessed as drug tolerance at 1 uM/kg, iv administered every two days for 21 days along with 250 mW/cm2 light irradiation at 660 nm for 10 mins at 1 hr post-compound administration; assay type: organism-based; conditions: in vivo, 505.17 h, time 505.166 hrs
[24] = Toxicity in BALB/C nude mouse model xenografted with human HepG2 cells assessed as body weight loss at 1 uM/kg, iv administered every two days for 21 days along with 250 mW/cm2 light irradiation at 660 nm for 10 mins at 1 hr post-compound administration; assay type: organism-based; conditions: in vivo, 505.17 h, time 505.166 hrs
[25] = Toxicity in BALB/C nude mouse model xenografted with human HepG2 cells assessed as change in heart weight at 1 uM/kg, iv administered every two days for 21 days along with 250 mW/cm2 light irradiation at 660 nm for 10 mins at 1 hr post-compound administration; assay type: organism-based; conditions: in vivo, 505.17 h, time 505.166 hrs
[26] = Toxicity in BALB/C nude mouse model xenografted with human HepG2 cells assessed as change in liver weight at 1 uM/kg, iv administered every two days for 21 days along with 250 mW/cm2 light irradiation at 660 nm for 10 mins at 1 hr post-compound administration; assay type: organism-based; conditions: in vivo, 505.17 h, time 505.166 hrs
[27] = Toxicity in BALB/C nude mouse model xenografted with human HepG2 cells assessed as change in spleen weight at 1 uM/kg, iv administered every two days for 21 days along with 250 mW/cm2 light irradiation at 660 nm for 10 mins at 1 hr post-compound administration; assay type: organism-based; conditions: in vivo, 505.17 h, time 505.166 hrs
[28] = Toxicity in BALB/C nude mouse model xenografted with human HepG2 cells assessed as change in lung weight at 1 uM/kg, iv administered every two days for 21 days along with 250 mW/cm2 light irradiation at 660 nm for 10 mins at 1 hr post-compound administration; assay type: organism-based; conditions: in vivo, 505.17 h, time 505.166 hrs
[29] = Toxicity in BALB/C nude mouse model xenografted with human HepG2 cells assessed as change in kidney weight at 1 uM/kg, iv administered every two days for 21 days along with 250 mW/cm2 light irradiation at 660 nm for 10 mins at 1 hr post-compound administration; assay type: organism-based; conditions: in vivo, 505.17 h, time 505.166 hrs
[30] = Toxicity in BALB/C nude mouse model xenografted with human HepG2 cells assessed as damage in heart at 1 uM/kg, iv administered every two days for 21 days along with 250 mW/cm2 light irradiation at 660 nm for 10 mins at 1 hr post-compound administration by H and E staining based analysis; assay type: organism-based; conditions: in vivo, 505.17 h, time 505.166 hrs
[31] = Toxicity in BALB/C nude mouse model xenografted with human HepG2 cells assessed as damage in liver at 1 uM/kg, iv administered every two days for 21 days along with 250 mW/cm2 light irradiation at 660 nm for 10 mins at 1 hr post-compound administration by H and E staining based analysis; assay type: organism-based; conditions: in vivo, 505.17 h, time 505.166 hrs
[32] = Toxicity in BALB/C nude mouse model xenografted with human HepG2 cells assessed as damage in spleen at 1 uM/kg, iv administered every two days for 21 days along with 250 mW/cm2 light irradiation at 660 nm for 10 mins at 1 hr post-compound administration by H and E staining based analysis; assay type: organism-based; conditions: in vivo, 505.17 h, time 505.166 hrs
[33] = Toxicity in BALB/C nude mouse model xenografted with human HepG2 cells assessed as damage in lung at 1 uM/kg, iv administered every two days for 21 days along with 250 mW/cm2 light irradiation at 660 nm for 10 mins at 1 hr post-compound administration by H and E staining based analysis; assay type: organism-based; conditions: in vivo, 505.17 h, time 505.166 hrs
[34] = Toxicity in BALB/C nude mouse model xenografted with human HepG2 cells assessed as damage in kidney at 1 uM/kg, iv administered every two days for 21 days along with 250 mW/cm2 light irradiation at 660 nm for 10 mins at 1 hr post-compound administration by H and E staining based analysis; assay type: organism-based; conditions: in vivo, 505.17 h, time 505.166 hrs
MCF7 [35] = assay: Antitumor activity against human MCF7 cells xenografted in BALB/C nude mouse model assessed as decrease in tumor growth at 1 uM/kg, iv administered every two days for 21 days along with 250 mW/cm2 light irradiation at 660 nm for 10 mins at 1 hr post-compound administration; assay type: functional, organism-based; conditions: time 505.166 hrs

Compound: C=Cc1c(C)c2cc3nc(c(CC(=O)O)c4[nH]c(cc5nc(cc1[nH]2)C(C)=C5CC)c(C)c4C(=O)NCCCC(=O)N[C@@H](CC(=O)O)C(=O)N[C@@H](Cc1ccc(O)cc1)C(=O)N[C@@H](CCC(=O)O)C(=O)N[C@@H](CCSC)C(=O)N[C@@H](Cc1cnc[nH]1)C(=O)N[C@@H](CC(C)C)C(=O)N[C@@H](Cc1c[nH]c2ccccc12)C(=O)N[C@@H](Cc1c[nH]c2ccccc12)C(=O)NCC(=O)N[C@H](C(=O)N[C@@H](CCC(=O)O)C(=O)N[C@@H](CC(C)C)C(=O)O)[C@@H](C)O)[C@@H](CCC(=O)O)[C@@H]3C (HELM PEPTIDE1{[C=Cc1c(C)c2cc3nc(c(CC(=O)O)c4[nH]c(cc5nc(cc1[nH]2)C(C)=C5CC)c(C)c4C(=O)[*:2])[C@@H](CCC(=O)O)[C@@H]3C].[O=C(CCCN[*:1])[*:2]].D.Y.E.M.H.L.W.W.G.T.E.L}$$$$V2.0)
IC50 (HepG2 [1]): > 200 µM | IC50 (HepG2 [2]): 1.7 µM | IC50 (Huh-7 [3]): > 200 µM | IC50 (Huh-7 [4]): 1.9 µM | IC50 (MCF7 [5]): > 200 µM | IC50 (MCF7 [6]): 5.3 µM | IC50 (HeLa [7]): > 200 µM | IC50 (HeLa [8]): 4.7 µM | IC50 [9]: > 200 µM | IC50 [10]: 9.8 µM | logP [11]: 1.5 | Stability [12]: Stable | Activity [13]: Active | half-life (chymotrypsin): 1.3 h

IC50 (HepG2 [1]): > 100 µM | IC50 (HepG2 [2]): 16 µM | IC50 (Huh-7 [3]): > 100 µM | IC50 (Huh-7 [4]): 18 µM | IC50 (MCF7 [5]): > 100 µM | IC50 (MCF7 [6]): > 10 µM | IC50 (HeLa [7]): > 100 µM | IC50 (HeLa [8]): > 10 µM | Kd (Glypican-3): > 10 µM | Activity [13]: Active | Drug uptake [15]: Active | Drug uptake [16]: Active | Drug uptake [19]: Active | Drug uptake [20]: Active | Drug uptake [21]: Not Active
Compound: C=Cc1c(C)c2cc3nc(c(CC(=O)O)c4[nH]c(cc5nc(cc1[nH]2)C(C)=C5CC)c(C)c4C(=O)O)[C@@H](CCC(=O)O)[C@@H]3C [CHLORIN E6]
IC50 [9]: > 200 µM | IC50 [10]: > 10 µM | Activity [14]: Active | Activity (HepG2 [17]): inactive | Activity (HepG2 [18]): Active | TGI (HepG2 [22]): 71.3% | Activity [23]: Non-Toxic | Activity [24]: Non-Toxic | Activity [25]: Non-Toxic | Activity [26]: Non-Toxic | Activity [27]: Non-Toxic | Activity [28]: Non-Toxic | Activity [29]: Non-Toxic | Activity [30]: Non-Toxic | Activity [31]: Non-Toxic | Activity [32]: Non-Toxic | Activity [33]: Non-Toxic | Activity [34]: Non-Toxic | Activity (MCF7 [35]): Active

half-life (chymotrypsin): 1.1 h
Compound: H-DHLASLWWGTEL-OH

Source: ChEMBL document CHEMBL5537154, “Smart glypican-3-targeting peptide-chlorin e6 conjugates for targeted photodynamic therapy of hepatocellular carcinoma” (Eur J Med Chem, 2024)
